Data on three compounds can be found in patent US20250326715A1, “NOVEL MAIN PROTEASE INHIBITORS, AND COMPOSITIONS AND METHODS THEREOF” (University of Massachusetts, priority 2023, published 2025).

Each structure is given as a SMILES string. Like-named read-outs stand apart in the source and are kept apart here.

One data set has as its system A549-hACE2 cells. The experiment in a line: Cytotoxicity assay (LDH release). Format: cell-based, human. In general terms: Release of lactate dehydrogenase indicates damage to the cell membrane.
The subject of the next data set is SARS-CoV-2. The data set is classed as cell-based. The settings on record: Huh7.5 cells, 2 μM, 24 h.
Data set [1] in a line: Aqueous solubility (comparison in words).
A further data set is described as follows: in vivo. The settings on record: male, C57Bl/6, mouse.
For data set [2] the following is noted: mock-infected mice.
A further data set addresses SARS-CoV-2 M^Pro (Severe acute respiratory syndrome coronavirus 2, UniProt P0DTD1). The data set can be described thus: Determination of kinact/KI values for SARS-CoV-2 M^Pro (time- and concentration-dependent inactivation). Format: biochemical. The protocol: where νo is the initial velocity of uninhibited reaction and νi is the initial velocity in the presence of inhibitor. All measurements were done in triplicate. Determination of kinact/KI values for SARS-CoV-2 M^Pro
Time- and concentration-dependent inactivation assays were done by following a similar protocol as described for Ki determination. M^Pro (12.5 nM final) was treated with the peptide-substrate (30 μM final) and test inhibitor (0-80 μM for D-FF(R/Cit)-(CMK/CMKyne); 0-1.25 mM for SM136-145) at time=0 to initiate inactivation process. The total volume of the assay mixture was 50 μL. Time-dependent increase in fluorescence was monitored at 485 nm with excitation at 340 nm for a period of 20-25 min. The observed rates (kobs) for the peptide cleavage in both the presence and absence of inhibitor were determined by fitting to a single-phase association equation. The resulting kobs values were plotted against the concentrations of inhibitor and linear fits were used to derive the slope that afforded the kinact/KI values. All measurements were done in triplicate.

A further data set has as its target M^Pro (Severe acute respiratory syndrome coronavirus 2, UniProt P0DTD1). The data set can be described thus: Chemoproteomic enrichment of proteins labelled by SM144 in A549-hACE2 lysate spiked with M^Pro. Format: binding, SARS-CoV-2. The settings on record: 1 μM SM144, lysate spiked with 250 nM M^Pro. The procedure:
The proteome-wide selectivity was evaluated via an orthogonal chemoproteomic assay. […] Subsequently, the labeled proteins were biotinylated with copper-catalyzed click chemistry in the presence of Biotin-azide, and the biotinylated proteins were selectively enriched on Streptavidin-agarose beads, proteolyzed with trypsin and analyzed by chemoproteomic analysis. […] There were, however, a few cellular off-targets, including glutathione reductase (GSHR), adenosylhomocysteinase (SAHH), aldose reductase (ALDR), S-adenosylmethionine synthase isoform type-2 (METK2), gamma-actin (ACTG), tubulin alpha-4A chain (TBA4A), ubiquitin-like modifier-activating enzyme 1 (UBA1) and junction plakoglobin (PLAK).
A549-hACE2 cell lysate was prepared as described earlier. Endogenous biotinylated proteins were precleared by incubating the lysates with streptavidin-agarose beads (25 μL for 1 mg of total protein in the lysate) at room temperature for 1 h with constant mixing on an end-over-end shaker. The mixture was centrifuged (1200 g, 3 minute) to separate the beads and the supernatant (pre-cleared lysate). […] The assay mixture was incubated at 25° C. for 30 min. Then Biotin-N3 (200 μM), TCEP (1 mM), TBTA (0.3 mM) and freshly prepared CuSO4 (4 mM) were added sequentially, and the tubes were gently tumbled at room temperature for 2 h. […]

Experimental for A549-hACE2 cells: A549-hACE2 cells were treated with indicated doses of inhibitors for 24 hours. Then the media were collected for lactate dehydrogenase (LDH) assay.
Supernatant samples are transferred to a 96-well plate and an equal volume of CytoTox 96® Reagent is added to each well and incubated for 30 min.
Experimental for in vivo: Pharmacokinetics were evaluated in male C57Bl/6 mice, approximately 25 g. Test compounds were formulated at 0.3 mg/mL for intravenous dosing and 1 mg/mL for oral gavage. Formulation concentrations reflect free-base concentrations. Formulations were prepared by dissolving in DMSO (20× stock) and mixing 1:1 with tween-80. Prior to dosing, the formulation was diluted with sterile saline. The final formulation was 5% DMSO, 5% tween-80, 90% saline (v:v:v). Mice (n=3) were dosed at 10 μL per gram body weight. […] A total of 25 μL blood was collected at each time point. The hematocrit tubes were sealed with a wax plug and held on ice until plasma could be isolated via centrifugation in a microcentrifuge fit with a hematocrit rotor.
Drug levels were determined from 5 μL plasma. Plasma was treated with 75 μL 90/10 acetonitrile/water containing Carbamazepine as an internal standard (IS). Samples were loaded to a 96-well Millipore Multiscreen Solvinter 0.45 micron low binding PTFE hydrophilic filter plate and the filtrate was directly analyzed. All plasma samples were treated with 75 μL 90/10 acetonitrile/water with Carbamazepine as internal standard (IS) to extract the analyte and precipitate protein. The plates were agitated on ice for approximately five minutes prior to centrifugation into a collection plate. Separate standard curves were prepared in blank mouse plasma and brain homogenate and processed in parallel with the samples. The filtrate was directly analyzed by LC-MS/MS.

`CCOC(=O)C=CC(CC1CCNC1=O)NC(=O)C(Cc1ccccc1)NC(=O)C(N)Cc1ccccc1` (stereo not shown) [SM141]: the “concentration up to which no notable cytotoxicity is caused” value in the data set with A549-hACE2 cells (A549-hACE2 cells, 24 h, LDH) was more than 50 µM. Moreover, the cytoxcity with A549-hACE2 cells (Table 2) was more than 100 µM. Besides, the “antiviral activity, in words” value in the data set with SARS-CoV-2 is recorded as “almost completely blocks viral infection”. For the same compound, the “aqueous solubility, in words” value in data set [1] was “more aqueous solubility than SM142”. In the data set “in vivo” (ip), the AUC(0-inf) (commonly total exposure, with the tail of the curve extrapolated) is 827 ng·h/mL; the AUC(0-t) (usually the area under the concentration-time curve up to a stated or last time point) amounted to 1.6 µM·h; the Cmax – broadly, the highest concentration seen after dosing – turned out to be 2.7 µM; the Tmax (as a rule, the time at which the peak concentration occurs) was 8.4 min. Moreover, in the data set “in vivo” (ip), the bioavailability (in general, dose-corrected exposure relative to a reference, in per cent) came out at 35.2% and the half-life (as a rule, the time in which the quantity being followed falls by half) is 48 min. In the data set “in vivo” (iv), the AUC(0-inf) is 706 ng·h/mL; the AUC(0-t) was 1.3 µM·h; the highest level (Cmax) was 3.9 µM; the MRT inf (in general, a mean duration of stay, worked out from the concentration-time curve) amounted to 24 min. For the same compound, in the data set “in vivo” (iv), the Tmax was determined as 4.8 min, the Vd (usually the apparent volume that relates the amount in the body to the concentration in plasma or blood) was 1.6 L/kg and the half-life was 48 min. Besides, the “weight loss in uninfected mice” value in data set [2] was “no significant weight loss in the uninfected mice”.

Regarding `CCOC(=O)C=CC(CC1CCNC1=O)NC(=O)C(Cc1ccccc1)NC(=O)C(Cc1ccc(F)cc1)NC(=O)OC(C)(C)C` (stereo not shown) [SM142], the kinact/KI at SARS-CoV-2 M^Pro (read-out: M^Pro kinact/KI) was found to be 183 M⁻¹ s⁻¹. For the same compound, the “weight loss in uninfected mice” value in data set [2] is recorded as “no significant weight loss in the uninfected mice”.

Take `C#CCOCCC(=O)NC(Cc1ccc(F)cc1)C(=O)NC(Cc1ccccc1)C(=O)NC(C=CC(=O)OCC)CC1CCNC1=O` (stereo not shown) [SM144]: the kinact/KI at SARS-CoV-2 M^Pro (read-out: second-order rate constant for enzyme inactivation (kinact/KI), M^Pro) came to 567 M⁻¹ s⁻¹. Moreover, the “proteome-wide selectivity (enriched proteins)” value at M^Pro was “M^Pro is the most statistically significantly enriched protein”.
